PubChem BioAssay AID330 (DTP/NCI, 2004)
Where “and” joins values, the source holds several entries; their conditions need not be identical. Equal values may be shown once. Inconclusive results and toxic doses are left out. How the source made its calls: active means survival T/C of 150% or more; inactive means T/C below 125% in these data.

System: P388 leukemia ip, CD2F1 mice, survival T/C
Assay: NCI In Vivo Anticancer Drug Screen. Data for tumor model P388 Leukemia (intraperitoneal) in CD2F1 (CDF1) mice
Details: endpoint: median survival time, higher = longer survival
How it was run: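 Mice carrying the transplanted tumor received test compound or vehicle. Survival was recorded in each group, and the value is the treated-group measurement divided by that of the vehicle-treated control group.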

[1] = dose: 50.0 mg/kg/injection, schedule: Q01DX009 (ip), vehicle: suspension in saline
[2] = dose: 100.0 mg/kg/injection, schedule: Q01DX009 (ip), vehicle: suspension in saline
[3] = dose: 12.5 mg/kg/injection, schedule: Q01DX009 (ip), vehicle: saline with Tween-80
[4] = dose: 25.0 mg/kg/injection, schedule: Q01DX009 (ip), vehicle: saline with Tween-80
[5] = dose: 50.0 mg/kg/injection, schedule: Q01DX009 (ip), vehicle: saline with Tween-80
[6] = dose: 100.0 mg/kg/injection, schedule: Q01DX009 (ip), vehicle: saline with Tween-80
[7] = dose: 50.0 mg/kg/injection, schedule: Q01DX009 (ip), vehicle: saline
[8] = dose: 100.0 mg/kg/injection, schedule: Q01DX009 (ip), vehicle: saline
[9] = dose: 25.0 mg/kg/injection, schedule: Q01DX009 (ip), vehicle: Klucel (hydroxypropylcellulose) (HPC)
[10] = dose: 50.0 mg/kg/injection, schedule: Q01DX009 (ip), vehicle: Klucel (hydroxypropylcellulose) (HPC)
[11] = dose: 100.0 mg/kg/injection, schedule: Q01DX009 (ip), vehicle: Klucel (hydroxypropylcellulose) (HPC)
[12] = dose: 200.0 mg/kg/injection, schedule: Q01DX009 (ip), vehicle: saline with Tween-80
[13] = dose: 200.0 mg/kg/injection, schedule: Q01DX009 (ip), vehicle: saline
[14] = dose: 100.0 mg/kg/injection, schedule: Q04DX003 (ip), vehicle: Klucel (hydroxypropylcellulose) (HPC)
[15] = dose: 200.0 mg/kg/injection, schedule: Q04DX003 (ip), vehicle: Klucel (hydroxypropylcellulose) (HPC)
[16] = dose: 400.0 mg/kg/injection, schedule: Q04DX003 (ip), vehicle: Klucel (hydroxypropylcellulose) (HPC)
[17] = dose: 50.0 mg/kg/injection, schedule: Q01DX005 (ip), vehicle: saline
[18] = dose: 100.0 mg/kg/injection, schedule: Q01DX005 (ip), vehicle: saline

Measured: T/C

COc1ccc2nc(NCCNCCO)cc(NCCNCCO)c2c1
inactive: dose: 30.0 mg/kg/injection, schedule: Q01DX005 (ip), vehicle: water 98 % of control | dose: 60.0 mg/kg/injection, schedule: Q01DX005 (ip), vehicle: water 97 % of control

CN(C)c1ccc(C2NC(C(=O)O)CS2)cc1 (stereo not given)
inactive: [1] 91 % of control | [2] 100 % of control | dose: 200.0 mg/kg/injection, schedule: Q01DX009 (ip), vehicle: suspension in saline 100 % of control

Cc1c(-c2ccccc2)sc(/N=C/c2cc(Br)cc(Br)c2O)c1C#N
inactive: [3] 99 % of control | [4] 98 % of control | [5] 100 % of control | [6] 99 % of control

CC1C2Cc3ccc(O)cc3C1(C)CCN2Cc1ccoc1 (stereo not given)
inactive: [7] 96 % of control | [8] 99 % of control

COC1/C=C\OC2(C)Oc3c(C)c(O)c4c(O)c(c5[nH]c(-c6ccccc6)nc5c4c3C2=O)NC(=O)/C(C)=C\C=C\C(C)C(O)C(C)C(O)C(C)C(OC(C)=O)C1C (stereo not given)
inactive: [9] 106 % of control | [10] 100 % of control | [11] 88 % of control

O=[N+]([O-])c1ccc(Sc2ccccn2)nc1Sc1ccccn1
inactive: dose: 0.79 mg/kg/injection, schedule: Q01DX009 (ip), vehicle: saline with Tween-80 100 % of control | dose: 1.56 mg/kg/injection, schedule: Q01DX009 (ip), vehicle: saline with Tween-80 104 % of control | dose: 3.12 mg/kg/injection, schedule: Q01DX009 (ip), vehicle: saline with Tween-80 100 % of control | [12] 92 % of control

O=Cc1ccco1
inactive: [5] 99 % of control | [6] 101 % of control | [12] 118 % of control

CN(C)C(=S)/N=C1\SCS(=O)(=O)N1C
inactive: [4] 91 % of control | [5] 110 % of control | [6] 100 % of control

O=C1CCC(CBr)(C(=O)O)O1 (stereo not given)
inactive: [7] 102 % of control | [8] 111 % of control | [13] 100 % of control

COC(=O)c1ccc(C)c(N)c1
inactive: dose: 50.0 mg/kg/injection, schedule: Q01DX005 (ip), vehicle: saline with Tween-80 102 % of control | dose: 100.0 mg/kg/injection, schedule: Q01DX005 (ip), vehicle: saline with Tween-80 104 % of control | dose: 200.0 mg/kg/injection, schedule: Q01DX005 (ip), vehicle: saline with Tween-80 102 % of control

OC(COc1cccc(C(F)(F)F)c1)CN1CCN(c2ccc(F)cc2)CC1 (stereo not given)
inactive: [3] 100 % of control | dose: 25.0 mg/kg/injection, schedule: Q01DX009 (ip), vehicle: distilled water + Tween-80 106 % of control | [4] 106 % of control | dose: 50.0 mg/kg/injection, schedule: Q01DX009 (ip), vehicle: distilled water + Tween-80 108 % of control | [5] 124 % of control

BrC=C1c2ccccc2-c2ccccc21
inactive: [14] 100 % of control | [15] 91 % of control | [16] 102 % of control

CCCCCC(=O)OCCN1CCN(CCCN2c3ccccc3Sc3ccc(C(F)(F)F)cc32)CC1
inactive: dose: 12.5 mg/kg/injection, schedule: Q01DX009 (ip), vehicle: Klucel (hydroxypropylcellulose) (HPC) 113 % of control | [9] 101 % of control

CC(C)c1ccc(C2OCC(C)(C)C(C(C)C)O2)cc1 (stereo not given)
inactive: dose: 100.0 mg/kg/injection, schedule: Q04DX003 (ip), vehicle: saline with Tween-80 108 % of control | dose: 200.0 mg/kg/injection, schedule: Q04DX003 (ip), vehicle: saline with Tween-80 105 % of control | dose: 400.0 mg/kg/injection, schedule: Q04DX003 (ip), vehicle: saline with Tween-80 109 % of control

O=C(NC(Cc1cccc(F)c1)C(=O)O)c1ccccc1 (stereo not given)
inactive: dose: 6.25 mg/kg/injection, schedule: Q01DX009 (ip), vehicle: other 95 % of control | dose: 12.5 mg/kg/injection, schedule: Q01DX009 (ip), vehicle: other 96 % of control

CCOC(=O)c1cc2c(oc1=O)-c1cc(C)ccc1OC2C (stereo not given)
inactive: dose: 60.0 mg/kg/injection, schedule: Q01DX005 (ip), vehicle: saline with Tween-80 104 % of control | dose: 120.0 mg/kg/injection, schedule: Q01DX005 (ip), vehicle: saline with Tween-80 110 % of control | dose: 240.0 mg/kg/injection, schedule: Q01DX005 (ip), vehicle: saline with Tween-80 105 % of control

O=[N+]([O-])c1ccc(/C=C/Sc2ccccc2)o1
inactive: [1] 99 % of control | [2] 98 % of control

CCN(C(=S)Nc1cccc(C(F)(F)F)c1)c1ccccc1
inactive: [10] 101 % of control | [11] 108 % of control

Cc1ccc(N2C(=O)CC3(CCCCC3)C2=O)cc1[N+](=O)[O-]
inactive: [14] 93 % of control | [15] 97 % of control | [16] 99 % of control

O=c1cc[nH]c(=O)n1C1OC(CO)C(O)C1O (stereo not given)
inactive: [17] 108 % of control | [18] 99 % of control | dose: 200.0 mg/kg/injection, schedule: Q01DX005 (ip), vehicle: saline 102 % of control | dose: 400.0 mg/kg/injection, schedule: Q01DX005 (ip), vehicle: saline 98 % of control

COc1c2cc(O)cc1CCCC1=CC(=O)C=C(CCC2)C1=O
inactive: dose: 100.0 mg/kg/injection, schedule: Q01DX001 (ip), vehicle: Klucel (hydroxypropylcellulose) (HPC) 99 % of control | dose: 200.0 mg/kg/injection, schedule: Q01DX001 (ip), vehicle: Klucel (hydroxypropylcellulose) (HPC) 99 % of control | dose: 400.0 mg/kg/injection, schedule: Q01DX001 (ip), vehicle: Klucel (hydroxypropylcellulose) (HPC) 108 % of control

CCn1c2nc(=O)n(C)c(=O)c-2[n+]([O-])c2cc(C)ccc21
inactive: dose: 6.25 mg/kg/injection, schedule: Q04DX003 (ip), vehicle: saline with Tween-80 88 % of control | dose: 12.5 mg/kg/injection, schedule: Q04DX003 (ip), vehicle: saline with Tween-80 86 % of control | dose: 25.0 mg/kg/injection, schedule: Q04DX003 (ip), vehicle: saline with Tween-80 88 % of control | dose: 50.0 mg/kg/injection, schedule: Q04DX003 (ip), vehicle: saline with Tween-80 86 % of control

CCOC(=O)c1cc(OC(C)=O)c2c(ccc3ccccc32)c1C
inactive: [11] 95 % of control | dose: 200.0 mg/kg/injection, schedule: Q01DX009 (ip), vehicle: Klucel (hydroxypropylcellulose) (HPC) 90 % of control | dose: 400.0 mg/kg/injection, schedule: Q01DX009 (ip), vehicle: Klucel (hydroxypropylcellulose) (HPC) 95 % of control

O=c1[nH]c(=O)c2nc(-c3ccc(Cl)c(Cl)c3)cnc2[nH]1
inactive: dose: 100.0 mg/kg/injection, schedule: Q01DX001 (ip), vehicle: saline 100 % of control | dose: 200.0 mg/kg/injection, schedule: Q01DX001 (ip), vehicle: saline 116 % of control | dose: 400.0 mg/kg/injection, schedule: Q01DX001 (ip), vehicle: saline 91 % of control

CCCC(O)CNCc1ccnc2ccc(OC)cc12 (stereo not given)
inactive: [17] 109 % of control | [18] 98 % of control

CCOCCC(O)CC (stereo not given)
inactive: [8] 90 % of control | dose: 100.0 mg/kg/injection, schedule: Q04DX003 (ip), vehicle: saline 122 % of control | [13] 95 % of control | dose: 200.0 mg/kg/injection, schedule: Q04DX003 (ip), vehicle: saline 104 % of control | dose: 400.0 mg/kg/injection, schedule: Q01DX009 (ip), vehicle: saline 104 % of control

CC[C@H]1OC(=O)[C@H](C)[C@@H](OC2CC(C)(OC)C(O)C(C)O2)[C@H](C)[C@@H](OC2OC(C)CC(N(C)C)C2OC(=O)CCC2CCCC2)[C@](C)(O)C[C@@H](C)C(=O)[C@H](C)[C@@H](O)[C@]1(C)O (stereo not given in full)
inactive: dose: 50.0 mg/kg/injection, schedule: Q01DX005 (ip), vehicle: Klucel (hydroxypropylcellulose) (HPC) 96 % of control | dose: 100.0 mg/kg/injection, schedule: Q01DX005 (ip), vehicle: Klucel (hydroxypropylcellulose) (HPC) 100 % of control | dose: 200.0 mg/kg/injection, schedule: Q01DX005 (ip), vehicle: Klucel (hydroxypropylcellulose) (HPC) 93 % of control

CCCCCCCCCCCCSCN(CC)CC
inactive: dose: 25.0 mg/kg/injection, schedule: Q01DX009 (ip), vehicle: saline 89 % of control | [7] 99 % of control and 111 % of control | [8] 101 % of control and 103 % of control
